Source: patent US20120322768A1, “COMPOUNDS, COMPOSITIONS AND METHODS FOR TREATING PROTOZOAN INFECTIONS” (QUEEN MARY & WESTFIELD COLLEGE, priority 2009, published 2012)
Where two headings read alike, the source gives them in different places.

Tests used:
[1] = system: bloodstream form T. brucei; test: microbe, parasite or virus in culture; format: cell-based; details: Trypanosoma brucei
[2] = system: intracellular form T. cruzi; test: microbe, parasite or virus in culture; format: cell-based; details: Trypanosoma cruzi, Vero, 72 h, read-out: IC50 T. cruzi
Vero cells = test: cells; format: cell-based; details: Chlorocebus sabaeus, read-out: IC50 Vero cells
[3] = system: insect form Leishmania major; test: microbe, parasite or virus in culture; format: cell-based; details: 144 h, read-out: IC50 L. major
THP-1 cells = test: cells; details: Homo sapiens, THP-1, 144 h, read-out: IC50 THP1
[4] = Stability in phosphate buffer (HPLC); format: physicochemical; details: pH 7.4, 100 mM phosphate buffer, three-day incubation at 37° C., 100 μM
Protocol: (§1) Select nitrobenzyl phosphoramide mustards (100 μM) were incubated in pH 7.4 100 mM phosphate buffer or in whole human blood at 37° C. Aliquots were withdrawn at different time intervals and mixed with acetonitrile (1-1 for phosphate buffer and 1-5 for whole blood). The samples were centrifuged and analyzed by HPLC.

[5] = Stability in whole human blood (HPLC); format: in vitro ADME; details: three-day incubation at 37° C., 100 μM
Protocol: as §1

[6] = substrate: CC1CS(=O)(=O)CCN1/N=C/c1ccc([N+](=O)[O-])o1; test: TbNTR enzyme activity by NADH oxidation (absorbance at 340 nm); format: biochemical, T. brucei; details: other: apparent; NADH 100 μM, substrate 2-75 μM
Protocol: Enzyme activity was measured by following the change in absorbance at 340 nm due to NADH oxidation (34, 35). A reaction mixture (1 ml) containing 50 mM Tris-Cl pH 7.0, 100 μM NADH and NBPM (Tables 1 and 2) was incubated at room temperature for 5 min. The background rate of NADH oxidation was determined and the reaction initiated by the addition of 20 μg TbNTR. The enzyme activity was calculated using c of 6,220 M^−1 cm^−1. The absorbance spectrum (320-600 nm) for each NBPM was determined before.

[7] = 72 h, read-out: IC50 T. bruccei
[8] = read-out: IC50 against bloodstream form T. brucei

For `NP(=O)(OCc1ccc([N+](=O)[O-])cc1F)N(CCCl)CCCl` (centres unmarked) [LH32, 2-Fluoro-4-nitrobenzyl phosphoramide mustard], the IC50 [1, 7] was 0.268 ± 0.008 µM, the IC50 [1, 8] was 0.268 ± 0.008 µM and the IC50 [2] was 9.54 ± 0.27 µM. It also gave an IC50 (Vero cells) of over 100 µM, an IC50 [3] of 4.72 ± 0.23 µM and an IC50 (THP-1 cells) of 20.3 ± 1.8 µM.

Work on `NP(=O)(OCc1ccc([N+](=O)[O-])cc1C(F)(F)F)N(CCCl)CCCl` (centres unmarked) [LH33, 2-Trifluoromethyl-4-nitrobenzyl phosphoramide mustard] yielded an IC50 [1, 7] of 0.149 ± 0.02 µM, an IC50 [1, 8] of 0.149 ± 0.02 µM and an IC50 [2] of 7.97 ± 1.13 µM. The IC50 (Vero cells) was over 100 µM, the IC50 [3] was 5.88 ± 0.28 µM and the IC50 (THP-1 cells) was 19 ± 1.9 µM.

For `NP(=O)(OCc1c(F)cc([N+](=O)[O-])cc1F)N(CCCl)CCCl` (centres unmarked) [LH37, 2,6-Difluoro-4-nitrobenzyl phosphoramide mustard], the IC50 [1, 7] was 0.007 µM, the IC50 [1, 8] was under 0.01 µM and the IC50 [2] was 0.99 ± 0.01 µM. For the same molecule, the IC50 (Vero cells) was over 100 µM, the IC50 [3] was 1.29 ± 0.08 µM and the “Stability in phosphate buffer” value [4] was “completely stable”. For the same molecule, the “Stability in human whole blood” value [5] was “completely stable” and the IC50 (THP-1 cells) was 6.9 µM.

With `NP(=O)(OCc1ccc([N+](=O)[O-])cc1)N(CCCl)CCCl` (centres unmarked) [LH7] the IC50 [1, 7] was 3.4 ± 0.3 µM and the IC50 (THP-1 cells) was 66 ± 0.8 µM.

For `Nc1nc(N)nc(Nc2ccc([As]3SCC(CO)S3)cc2)n1` (centres unmarked) [melarsoprol, reference compound], the IC50 ([1]; read-out: drug sensitivity (IC50)) was about 4 µM.

Work on `NP(=O)(OCc1ccc([N+](=O)[O-])cc1Cl)N(CCCl)CCCl` (centres unmarked) [LH34, 2-Chloro-4-nitrobenzyl phosphoramide mustard] yielded an IC50 [1, 7] of 0.008 ± 0.001 µM, an IC50 [1, 8] of under 0.01 µM and an IC50 [2] of 9.14 ± 0.54 µM. For the same molecule, the IC50 (Vero cells) was over 100 µM, the IC50 [3] was 3.1 ± 0.28 µM and the “Stability in phosphate buffer” value [4] was “stable”. For the same molecule, the “change in peak area in whole human blood” value [5] was “less than 30%” and the IC50 (THP-1 cells) was 10 ± 1.2 µM.

`CC1CS(=O)(=O)CCN1/N=C/c1ccc([N+](=O)[O-])o1` (centres unmarked) [Nifurtimox, reference compound] showed an IC50 (THP-1 cells) of 64.8 ± 1.5 µM.

B1: T. brucei NTR (TbNTR) (Trypanosoma brucei brucei TREU927) (protein)
chain: DAFIRVVERRHSSKRFDSSRPVDHTLIARLLEATTRAPTAFNLQPWVAIVVHETSQRGALSHAALDQPQPREAPVTVVFAGDMEPEWRAPAALELGLNSGYYHPLYGAAYLRLVYYHLHGGPFGSMAKAKSCISSWYSNATGTPLLSVPTTMQGYAWKQAMIPATTFIYAATAAGLDTAILEGFDEAKVREVVGLPERYTVPVIISVGYKKADEQGKPPVRSPRFSTGSLVRWNRF
Molecule B1 has a Km [6] of 53.1 ± 15.2 µM, a Vmax [6] of 0.423 µmol/min/mg and a kcat/Km [6] of 3400 M⁻¹ s⁻¹.
